The test relates to mealybug, Pseudococcus spp. Put plainly: Field efficacy on mealy bug, small-plot trials on cotton (Trials A, B, C). In kind it is in vivo. The settings on record: Sulfoxaflor 50 g/ha, Chlorpyrifos 500 g/ha, mixture 50 + 500 g/ha. On the procedure:
Field Efficacy on Mealy Bug
Applications were made to cotton, Gossypium hirsutum, using small-plot efficacy methods. Chemicals were diluted in water and all treatments were applied using a backpack sprayer calibrated to deliver 500 liters of spray per hectare. Experimental plots measured 5 by 10 meters and each treatment was replicated three times in each trial. Prior to treatment, 20 plants that were uniformly infested with mealybug, Pseudococcus spp., were marked in each experimental plot. At the specified intervals after treatment, the severity of mealybug infestation on the marked plants was rated using a 0-4 scale, where 0=no infestation and 4=stunted, blackened plant. The score for each plant in each experimental plot was summed to provide a total severity score for the plot. Data were transformed to percent control relative to the untreated plots, then subjected to analysis of variance, and means were separated using Tukey's HSD (p=0.1). Expected control was calculated using the method of Colby and compared to observed control. See the Table Section for the results of the Field Trials.

On to `CC(c1ccc(C(F)(F)F)nc1)S(C)(=O)=NC#N` (stereo not shown) [Sulfoxaflor], for which the “% Control” value reads like this: (Trial A, 3 DAT) 17.56%; (Trial A, 7 DAT) 21.65%; (Trial A, 11 DAT) 20.68%; (Trial B, 3 DAT) −2.66%; (Trial B, 7 DAT) 7.81%; (Trial B, 11 DAT) 7.81%. Moreover, the “% Control” value runs as follows: (Trial B, 14 DAT) 5.32%; (Trial C, 4 DAT) 7.39%; (Trial C, 8 DAT) 9.19%; (Trial C, 11 DAT) 4.76%; (Trial C, 14 DAT) 2.49%.

On to `CCOP(=S)(OCC)Oc1nc(Cl)c(Cl)cc1Cl` [Chlorpyrifos], for which the “% Control” value by setting is: (Trial A, 3 DAT) 35.64%; (Trial A, 7 DAT) 43.34%; (Trial A, 11 DAT) 43.60%; (Trial B, 3 DAT) 35.23%; (Trial B, 7 DAT) 38.80%; (Trial B, 11 DAT) 33.51%. Moreover, the “% Control” value (Trial B, 14 DAT) turned out to be 26.89%; the “% Control” value (Trial C, 4 DAT) is 36.44%; the “% Control” value (Trial C, 8 DAT) is 33.37%; the “% Control” value (Trial C, 11 DAT) amounted to 28.24%; the “% Control” value (Trial C, 14 DAT) was 23.03%.

Values taken from patent US8685423B2, “Controlling mealybugs” (priority 2011, dated 2014).
